# Values quoted from earlier work in PMC6851657 (Clinical Pharmacology and Therapeutics, 2019).
# Settings: ref fluconazole SimCYP compound file V16; cited from earlier work
compound,measurement,value
"OC(Cn1cncn1)(Cn1cncn1)c1ccc(F)cc1F [Fluconazole, fluconazole]",CL following i.v. administration,1.01 L/h
same,In vivo renal clearance in a 20–30 year healthy man,0.7 L/h
same,Volume of distribution at steady state,0.748 L/kg
